Data published in patent publication US20040033517A1, “Compositions and methods relating to endothelial cell signaling using the protease activated receptor (PAR1)” (priority 2002, published 2004).
Like-named read-outs stand apart in the source and are kept apart here. Ends that are not written are not given here.

How the values were obtained:
[1] = systemically and locally induced sepsis models; Zisman 1997, Bone-Larson 2000; cited from earlier work
[2] = system: human umbilical vein endothelial cells HUVEC-C; assay type: cell-based
Source text: Microarray Analysis. […] Total RNA was isolated followed by reverse transcription. Purified double stranded cDNA was in vitro transcribed in the presence of biotinylated dUTP and dCTP, fragmented cRNA was hybridized to the HG-U95Av2 array (Affymetrix, Santa Clara, Calif.), followed by staining with streptavidin-phycoerythrin. Arrays were scanned and analyzed using GeneChip3.1 software. […] An average fold-induction for the three independent experiments was obtained by calculating the means of the logarithm of the individual fold-increases for each agonist.

primary HUVEC = assay: TaqMan real-time RT-PCR of gene induction in primary HUVEC; assay type: cell-based, human; conditions: primary endothelial cells, quantitative PCR, FIG. 3A
Protocol: TaqMan Real Time PCR. For TaqMan (Applied Biosystems) real-time RT-PCR 4 μg total cellular RNA from stimulated primary HUVEC was reverse transcribed followed by RNAse treatment using the Superscript Kit (Invitrogen). TaqMan probes were custom designed for genes of interests. All samples were normalized with human GAPDH probes and primers obtained from Applied Biosystems.

[3] = HUVEC-C, 90 min, genes represented in FIG. 2 A-C
[4] = HUVEC-C, 90 min, higher variability, PAR1 enhanced (<1.3 fold with PAR2 agonist)
[5] = HUVEC-C, 90 min, higher variability, PAR2 enhanced (<1.3 fold with PAR1 agonist)
[6] = HUVEC-C, 90 min, higher variability, genes not induced by APC (<1.3 fold with APC)

MCP-1: monocyte chemoattractant protein-1, chemokine administered in cited sepsis models
Effect of administration in sepsis models [1]: protective

TFLLRNPNDK [PAR1]
Average fold induction, AKAP12 U81607 A-KINASE ANCHOR PROTEIN 12, GRAVIN [2]: 1.39 fold
Average fold induction, BCL2A1 U27467 BCL2 RELATED PROTEIN A1, BFL-1 [2]: 2.04 fold
Average fold induction, BIRC3 U45878 HUMAN INHIBITOR OF APOPTOSIS PROTEIN (IAP) 1 [2]: 2.39 fold
Average fold induction, DUSP1 X68277 DUAL-SPECIFICITY PHOSPHATASE 1 [2]: 2.05 fold
Average fold induction, DUSP5 U15932 DUAL-SPECIFICITY PHOSPHATASE 5 [2]: 2.93 fold
Average fold induction, GADD45B AF078077 GROWTH ARREST- AND DNA DAMAGE-INDUCIBLE GENE GADD45, BETA [2]: 1.26 fold
Average fold induction, IER3 S81914 IMMEDIATE-EARLY RESPONSE 3 [2]: 1.30 fold
Average fold induction, NAB1 AF045451 NGFIA-BINDING PROTEIN [2]: 1.49 fold
Average fold induction, NFKBIA M69043 NUCLEAR FACTOR OF KAPPA LIGHT CHAIN GENE ENHANCER IN B CELLS INHIBITOR, ALPHA [2]: 1.38 fold
Average fold induction, TNFAIP3 M59465 TUMOR NECROSIS FACTOR-ALPHA-INDUCED PROTEIN 3, A20 [2]: 1.39 fold
Average fold induction, ZFP36 M92843 ZINC FINGER PROTEIN 36, TRISTETRAPROLIN (TTP) [2]: 1.98 fold
Average Induction, A1288757 qm11h01.x1 Homo sapiens cDNA [2, 3]: 1.8 fold
Average Induction, A1670788 tz10c02.x1 Homo sapiens cDNA [2, 3]: 1.5 fold
Average Induction, A1985272 ws06b05.x1 Homo sapiens cDNA [2, 3]: 1.3 fold
Average Induction, A8022718 Homo sapiens m.RNA for DEPP (decidual protein induced by progesterone) [2, 3]: 1.3 fold
Average Induction, AB004066 Homo sapiens mRNA for DEC1 [2, 3]: 1.5 fold
Average Induction, AB014569 Homo sapiens mRNA for K1AA0669 protein [2, 3]: 1.3 fold
Average Induction, AF017786 Homo sapiens phosphatidic acid phosphohydrolase homolog (Dri42) [2, 3]: 1.6 fold
Average Induction, AF022375 Homo sapiens vascular endothelial growth factor mRNA [2, 3]: 1.5 fold
Average Induction, AF039843 Homo sapiens Sprouty 2 (SPRY2) mRNA [2, 3]: 1.6 fold
Average Induction, AF045451 Homo sapiens transcriptional regulatory protein p54 [2, 3]: 1.5 fold
Average Induction, AF050110 Homo sapiens TGFb inducible early protein and early growth response protein alpha genes [2, 3]: 1.7 fold
Average Induction, AF054182 Homo sapiens mitochondrial processing peptidase beta-subunit mRNA [2, 3]: 1.8 fold
Average Induction, AF068197 Homo sapiens BCE-1 mRNA [2, 3]: 1.5 fold
Average Induction, AF078077 Homo sapiens growth arrest and DNA-damage-inducible protein GADD45beta [2, 3]: 1.3 fold
Average Induction, AJ005821 Homo sapiens mRNA for X-like 1 protein [2, 3]: 2.4 fold
Average Induction, AL023584 Human DNA sequence from clone 67K17 on chromosome 6q24.1-24.3. [2, 3]: 1.8 fold
Average Induction, AL031432 Human DNA sequence from clone 465N24 on chromosome 1p35.1-36.13. [2, 3]: 1.9 fold
Average Induction, AL050078 Homo sapiens mRNA; cDNA DKFZp566G0746 [2, 3]: 1.6 fold
Average Induction, AL096858 Novel human gene mapping to chomosome 1 [2, 3]: 1.3 fold
Average Induction, Cluster Incl M22489 Human bone morphogenetic protein 2A (BMP-2A) [2, 3]: 2.4 fold
Average Induction, Cluster Incl U12767 Human mitogen induced nuclear orphan receptor (MINOR) [2, 3]: 2.4 fold
Average Induction, D15050 Human mRNA for transcription factor AREB6 [2, 3]: 2.1 fold
Average Induction, D50917 Human mRNA for KIAA0127 gene [2, 3]: 1.4 fold
Average Induction, D78579 Homo sapiens mRNA for neuron derived orphan receptor [2, 3]: 2.6 fold
Average Induction, D86181 Homo sapiens DNA for galactocerebrosidase [2, 3]: 1.9 fold
Average Induction, Guanine Nucleotide Exchange Factor 2 [2, 3]: 1.4 fold
Average Induction, J02931 Human placental tissue factor (two forms) mRNA [2, 3]: 3.0 fold
Average Induction, J04076 Human early growth response 2 protein (EGR2) mRNA [2, 3]: 2.0 fold
Average Induction, J04111 Human c-jun proto oncogene (JUN) [2, 3]: 1.7 fold
Average Induction, L05072 Homo sapiens interferon regulatory factor 1 gene [2, 3]: 1.9 fold
Average Induction, L19871 Human activating transcription factor 3 (ATF3) [2, 3]: 2.5 fold
Average Induction, L43821 Homo sapiens enhancer of filamentation (HEF1) mRNA [2, 3]: 1.4 fold
Average Induction, M22489/FEATURE Human bone morphogenetic protein 2A (BMP-2A) [2, 3]: 2.3 fold
Average Induction, M26683 Human interferon gamma treatment inducible mRNA [2, 3]: 1.6 fold
Average Induction, M28211 Homo sapiens GTP-binding protein (RAB4) mRNA [2, 3]: 2.0 fold
Average Induction, M28225 Human JE gene encoding a monocyte secretory protein [= MCP-1] [2, 3]: 2.1 fold
Average Induction, M29039 Human transactivator (jun-B) gene [2, 3]: 2.8 fold
Average Induction, M30474 Human kidney gamma-glutamyl transpeptidase type II mRNA [2, 3]: 2.7 fold
Average Induction, M31516 Human decay-accelerating factor mRNA [2, 3]: 1.7 fold
Average Induction, M36820 Human cytokine (GRO-beta) mRNA [2, 3]: 2.1 fold
Average Induction, M59465 Human tumor necrosis factor alpha inducible protein A20 mRNA [2, 3]: 1.4 fold
Average Induction, M60278 Human heparin-binding EGF-like growth factor mRNA [2, 3]: 3.6 fold
Average Induction, M60721 Human homeobox gene [2, 3]: 2.8 fold
Average Induction, M69043 Homo sapiens MAD-3 mRNA encoding 1kB-like activity [2, 3]: 1.4 fold
Average Induction, M92843 H.sapiens zinc finger transcriptional regulator mRNA [2, 3]: 2.0 fold
Average Induction, S81439 EGR alpha=early growth response gene alpha [2, 3]: 1.8 fold
Average Induction, S81914 IEX-1=radiation-inducible immediate-early gene [2, 3]: 1.3 fold
Average Induction, U04636 Human cyclooxygenase-2 (hCox-2) gene [2, 3]: 1.3 fold
Average Induction, U07802 Human Tis1 1d gene [2, 3]: 1.5 fold
Average Induction, U08015 Human NF-ATc mRNA [2, 3]: 1.4 fold
Average Induction, U12767/FEATURE Human mitogen induced nuclear orphan receptor (MINOR) [2, 3]: 4.9 fold
Average Induction, U15932 Human dual-specificity protein phosphatase [2, 3]: 2.9 fold
Average Induction, U25997 Homo sapiens stanniocalcin precursor (STC) mRNA [2, 3]: 1.6 fold
Average Induction, U43142 Human vascular endothelial growth factor related protein VRP [2, 3]: 1.4 fold
Average Induction, U59863 Human TRAF-interacting protein I-TRAF mRNA [2, 3]: 1.3 fold
Average Induction, U75697 Human transcription regulator RPD3-2B mRNA [2, 3]: 2.7 fold
Average Induction, U79259 Human clone 23945 mRNA [2, 3]: 1.5 fold
Average Induction, U81607 Homo sapiens gravin mRNA [2, 3]: 1.4 fold
Average Induction, W27545 32c4 Homo sapiens cDNA [2, 3]: 1.2 fold
Average Induction, X51345 Human jun-B mRNA for JUN-B protein [2, 3]: 1.8 fold
Average Induction, X63741 H.sapiens pilot mRNA [2, 3]: 1.9 fold
Average Induction, X68277 H.sapiens CL 100 mRNA for protein tyrosine phosphatase [2, 3]: 2.1 fold
Average Induction, X75918 H.sapiens mRNA for NOT [2, 3]: 2.3 fold
Average Induction, X89066 H.sapiens mRNA for TRPC1 protein [2, 3]: 2.6 fold
Average Induction, X94216 H.sapiens mRNA for VEGF-C protein [2, 3]: 1.4 fold
Average Induction, Y00630 Human mRNA for Arg-Serpin (plasminogen activator-inhibitor 2, PAI-2) [2, 3]: 2.2 fold
Average Induction, Z25821 H.sapiens gene for mitochondrial dodecenoyl-CoA delta-isomerase [2, 3]: 1.1 fold
Average Induction, Z48054 H.sapiens mRNA for peroxisomal targeting signal 1 (SKL type) receptor [2, 3]: 2.0 fold
Average Induction, L13740 Human TR3 orphan receptor mRNA ([2]; HUVEC-C, 90 min, genes represented in FIG. 2 A-C, first probe set): 4.8 fold
Average Induction, L13740 Human TR3 orphan receptor mRNA ([2]; HUVEC-C, 90 min, genes represented in FIG. 2 A-C, second probe set): 4.7 fold
Average Induction, A1186701 qe82d12.x1 Homo sapiens cDNA [2, 4]: 1.9 fold
Average Induction, A1953789 wx69d10.x1 Homo sapiens cDNA [2, 4]: 1.3 fold
Average Induction, AF024710 Homo sapiens vascular endothelial growth factor (VEGF) [2, 4]: 1.4 fold
Average Induction, AL035297 H.sapiens gene from PAC 747L4 [2, 4]: 1.7 fold
Average Induction, M22299 Human T-plastin polypeptide mRNA [2, 4]: 1.6 fold
Average Induction, U35735 Human RACH1 (RACH1) mRNA [2, 4]: 1.8 fold
Average Induction, U87460 Human putative endothelin receptor type B-like protein mRNA [2, 4]: 1.4 fold
Average Induction, A1038821 ox96d03.x1 Homo sapiens cDNA [2, 5]: 1.2 fold
Average Induction, AC004475 Homo sapiens chromosome 19, cosmid F23858 [2, 5]: 1.2 fold
Average Induction, AL049354 Homo sapiens mRNA; cDNA DKFZp566E183 [2, 5]: 1.1 fold
Average Induction, L38696 Homo sapiens autoantigen p542 mRNA [2, 5]: 1.0 fold
Average Induction, U27655 Human RGP3 mRNA [2, 5]: 1.2 fold
Average Induction, U53831 Homo sapiens interferon regulatory factor 7B [2, 5]: 1.1 fold
Average Induction, U58334 Human Bcl2, p53 binding protein Bbp/53BP2 (BBP/53BP2) mRNA [2, 5]: 1.1 fold
Average Induction, U65093 Human msg1-related gene 1 (mrg1) mRNA [2, 5]: 1.3 fold
Average Induction, W26851 17b12 Homo sapiens cDNA [2, 5]: 1.2 fold
Average Induction, Y13115 Homo sapiens mRNA for serine/threonine protein kinase SAK [2, 5]: 1.2 fold
Average Induction, Z25821 H.sapiens gene for mitochondrial dodecenoyl-CoA delta-isomerase [2, 5]: 1.1 fold
Average Induction, AB028069 Homo sapiens mRNA for activator of S phase Kinase [2, 6]: 2.0 fold
Average Induction, D38537 Human mRNA for protoporphyrinogen oxidase [2, 6]: 1.3 fold
Average Induction, M83667 Human NF-IL6-beta protein [2, 6]: 1.4 fold
Average Induction, U78082 Human RNA polymerase transcriptional regulation mediator (h-MED6) mRNA [2, 6]: 1.9 fold
Average Induction, U85267 Homo sapiens down syndrome candidate region 1 (DSCR1) gene [2, 6]: 1.6 fold
Induction of the MCP-1 transcript (microarray, text) ([2]; endothelial cells, 90 minutes): only induced by the PAR1 agonist
MCP-1 induction, time course (primary HUVEC): similarly induced
